As usually defined, the melting point is the temperature of the solid-liquid transition. In general, Ki refers to the equilibrium dissociation constant of an inhibitor or competing ligand from its target. A higher Ki goes with weaker binding. For orientation: IC50 means the point on the concentration scale where inhibition reaches its midpoint. Read a low IC50 as greater potency.

Each structure is given as a SMILES string.

This is an account of results in US20070249691A1, “Mercaptoimidazoles as Ccr2 Receptor Antagonists” (priority 2004, published 2007).

The target in one data set is T1, CCR2B (Homo sapiens, UniProt P41597).
T1 construct: expressed in transfected cells; host or cells: CHO cells (membrane preparation)
T1 sequence (P41597 1-360 isoform P41597-2): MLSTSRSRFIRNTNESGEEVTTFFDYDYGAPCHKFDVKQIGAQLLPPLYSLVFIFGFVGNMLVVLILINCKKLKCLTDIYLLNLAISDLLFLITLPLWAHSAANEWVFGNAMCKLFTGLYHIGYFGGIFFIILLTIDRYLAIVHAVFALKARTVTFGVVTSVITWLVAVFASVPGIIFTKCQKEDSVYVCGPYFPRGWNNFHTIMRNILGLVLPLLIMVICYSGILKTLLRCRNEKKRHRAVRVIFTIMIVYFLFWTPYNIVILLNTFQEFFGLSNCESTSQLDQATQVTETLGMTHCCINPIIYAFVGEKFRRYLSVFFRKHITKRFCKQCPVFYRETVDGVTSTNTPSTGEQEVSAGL
Put plainly: 125I-MCP-1 radioligand binding assay, membranes from CCR2B-transfected CHO cells. The settings on record: competition with 0.15 nM 125I-MCP-1, CCR2B-transfected CHO cell membranes, Cheng-Prusoff. The protocol:
Radioligand Binding Assay.
^125I-MCP-1 binding assays were performed in 96:well plates with 40 μg of protein per well. Compounds were dissolved and diluted in DMSO to 100× dilutions. A 10× concentration range of compounds was prepared in binding buffer (10% DSMO). Competition binding assays contained the following components in a total volume of 250 μl: 25 μl of the appropriate compound dilution (final concentration of 1% DMSO), 200 μl membranes from CCR2B-transfected CHO cells dissolved in binding buffer and 25 μl ^125I-MCP-1 (Bolton and Hunter labeled, Amersham, specific activity=2000 Ci/mmol, 0.15 nM final). Binding buffer was composed of 25 mM HEPES, 5 mM MgCl2, 1 mM CaCl2, 0.5% protease-free bovine serum albumin, pH 7.4. After 90 minutes incubation at 25° C. membranes were harvested on GF/B filters—presoaked in 0.5% polyethylenimine, followed by washing with buffer containing 25 mM HEPES, 5 mM MgCl2, 1 mM CaCl2, 5 mM NaCl, pH 7.4. Filter bound radioactivity was determined by liquid scintillation counting. EC50 values (μM) and Ki values (μM) were calculated. The ED50 value indicates the concentration of the test compound that competes with MCP-1 for half of the specific binding sites; the Ki value indicates the equilibrium dissociation constant, i.e. the concentration of the test compound that will bind to half of the binding sites at equilibrium in the absence of radioligand or other competitors. EC50 values and Ki values were calculated using non-linear regression in Graphpad Prism. Prism calculates the Ki or affinity of the receptor for the competing drug using the equation of Cheng and Prusoff (Biochem. Pharmacol. 1973, 22: 3099-3108). A low Ki indicates a high affinity of the receptor for the test compound. [formula] wherein Kd describes the affinity of the radioligand for the receptor, i.e. the concentration of the radioligand that will bind to half of the binding sites at equilibrium in the absence of competitors.
Table 6 lists Ki values (μM) obtained in the above-described test for compounds of formula (I).

The target in data set [1] is T2, CCR2 (Homo sapiens, UniProt P41597).
T2 sequence (P41597 1-360 isoform P41597-2): T1 sequence (P41597 1-360 isoform P41597-2)
Put plainly: Chemotactic response of human PBMC to MCP-1. The class given is cell-based. The arrangement: Mononuclear cells from human heparinized peripheral blood (PBMC) were isolated; endogenous in cells; host or cells: human peripheral blood mononuclear cells. Particulars: inhibition of migration of human PBMC to 30 ng/ml hMCP-1, 105 minutes. The procedure:
The CCR2 antagonistic activity of the compounds of the present invention can also be determined by measuring the effect of the compounds on the chemotactic response of cells in the presence of a chemokine, such as for example MCP-1.
Mononuclear cells from human heparinized peripheral blood (PBMC) were isolated using Ficoll-Paque gradient centrifugation (Amersham Biosciences). Assays of chemotactic responsiveness were performed using disposable 96-well chemotaxis chambers (ChemoTx, Neuro Probe) with 5-μm pore size polycarbonate (PVP-free) filter membranes. Mononuclear cells were fluorescently labeled with 5 μg/ml Calcein-AM (Molecular Probes, Eugene, Oreg.) at 37° C. for 30 minutes. Labeled cells were washed twice and resuspended at 5×10^6 cells/ml in Hanks' Balanced Salt Solution (Gibco BRL) supplemented with 0.2% bovine serum albumin. Subsequently, cells were pre-incubated for 10 minutes at room temperature with serial dilutions of the compounds in DMSO (dimethylsulfoxide) (final DMSO concentration of 0.2%). Bottom wells of the chemotaxis chamber were loaded with 28 μl medium containing 30 ng/ml recombinant hMCP-1 (R&D) or buffer only. Pre-treated cells (100.000 cells) were added in triplicate to the topside of the filter (20 μl) and incubated at 37° C. in humidified air containing 5% CO2. After 105 minutes incubation, the non-migrated cells were removed from the top of the filter by gently wiping the filter with a tissue. The migrated cells were measured using a fluorescent plate reader (λexcitation=485 nm; λemission=538 nm). The chemotactic response can be expressed as chemotactic index (C.I.), being the ratio of the means of migrated cells in the presence of MCP-1 and the means of migrated cells in the absence of chemokine. Percentage inhibition was calculated using the formula: [formula]
with Fsample, the fluorescence of the cells pre-incubated with 10, 1, 0.1, 0.01 or 0.001 μM compound and migrated to 30 ng/ml MCP-1 in the bottom wells; FMCP-1, the fluorescence of the cells pre-incubated with buffer-0.2% DMSO and migrated to 30 ng/ml MCP-1 and Fbuffer, the fluorescence of cells pre-incubated with buffer-0.2% DMSO and spontaneous migrated to buffer in the bottom wells. Table 7 lists the IC50 values (μM) obtained in the above-described test for compounds of formula (I). Assays were run in triplicate and repeated 2-7 times.

The target in data set [2] is T2, CCR2. The data set can be described thus: Inhibition of MCP-1 induced Ca-flux in human THP-1 cells. In kind it is cell-based. Further details: host or cells: THP-1 (human monocytic cell line). Particulars: -log IC50 (molar), inhibition of specific MCP-1 (10^-7 M hMCP-1) induced Ca2+ flux, FLIPR. The procedure: Inhibition of MCP-1 Induced Ca-Flux in Human THP-1 Cells
MCP-1 binding to the CCR2 receptor induces a rapid and transient intracellular release of Ca^2+ (secondary messenger) in several cell lines (Charo et al, PNAS 1994). Free Ca^2+ levels can be measured using a Ca^2+ sensitive dye. When the CCR2 receptor is blocked with a CCR2 receptor antagonist, the MCP-1 induced release of Ca^2+ is inhibited.
Human THP-1 cells (monocytic cell line, ATCC TIB-202) were cultured in RPMI 1640 medium supplemented with 10% fetal calf serum (FCS), 1% L-Glutamine, penicillin (50 U/ml) and streptomycin (50 μg/ml) (all GIBCO BRL, Gent). After centrifugation, cells were loaded for 30 minutes with the Ca^2+ sensitive fluorescent dye Fluo-3 μM (Molecular Probes, Leiden, Netherlands) (2 million cells/ml in RPMI medium containing 4 μM Fluo-3 μM, 20 mM HEPES, 0.1% Bovine Serum Albumin (BSA) and 5 mM probenecid). Excess dye was removed by 3-fold washing with buffer (5 mM HEPES, 140 mM NaCl, 1 mM MgCl2, 5 mM KCl, 10 mM glucose, 2.5 mM probenecid, 1.25 mM CaCl2, 0.1% BSA; all further incubations were done in this buffer). Cells were plated at a density of 150 000 cells/well in dark-wall 96-well plates (Costar, Cambridge, Mass.) and sedimented by centrifugation (1 minute). The cells were pre-incubated for 20 minutes with test compound. Then, 10^−7 M hMCP-1 (Bachem, Bubendorf, Switserland) was added. Changes in intracellular free Ca^2+ concentration were measured using the Fluorescent Imaging Plate Reader (FLIPR, Molecular Devices, Munchen, Germany). Fluorescence was recorded every second from 10 seconds before the addition of the MCP-1 till 2 minutes after the addition (first minute: 60 records with 1 second intervals, second minute 20 records with 3 second intervals). The maximal fluorescence obtained during this time frame was used for further calculations.
Table 5 reports pIC50 values obtained in the above-described test for compounds of formula (I). pIC50 defines—log IC50 wherein IC50 is the molar concentration of the test compound which inhibits 50% of specific MCP-1 induced Ca^2+ flux.

Consider `CCC(c1ccc(Cl)c(Cl)c1)n1cc(-c2sc(N)nc2C)nc1S.Cl` (stereo not drawn), for which the melting point fell in the range of 301.8 to 303.3 °C.
Take `CCC(c1ccc(F)c(F)c1)n1c(C(=O)OC)c(-c2ccno2)[nH]c1=S` (stereo in doubt) [Compound 53, (S)-3-[1-(3,4-difluoro-phenyl)propyl]-5-isoxazol-5-yl-2-thioxo-2,3-dihydro-1H-imidazole-4-carboxylic acid methyl ester]: the Ki at CCR2B amounted to 30 nM. Besides, it took 108 nM to reach half-maximal inhibition at CCR2 [1] (IC50).
At CCR2 [2], `CCC(c1ccc(Cl)c(Cl)c1)n1c(C(=O)OC)c(-c2cccs2)[nH]c1=S` (stereo not drawn) [Compound 6] showed an IC50 of 55 nM.
Same read-out and setting: to `CCC(c1ccc(F)c(F)c1)n1c(S)nc(-c2ccno2)c1C(=O)OC` (stereo not drawn) [Compound 7] belongs 11.7 nM.
Turning to `CCC(c1ccc(Cl)c(Cl)c1)n1c(S)nc(-c2nnco2)c1C(=O)OC` (stereo not drawn) [Compound 9], the IC50 at CCR2 [2] was 35.5 nM.
With `CCC(c1ccc(F)c(F)c1)n1c(C(N)=O)c(-c2nnc(C)o2)[nH]c1=S` (stereo not drawn) [Compound 13], the melting point lay in the range of 228 to 229 °C. The compound also displayed a Ki on CCR2B of 300 nM.
Compound `CCC(c1ccc(F)c(F)c1)n1c(C(=O)NCCO)c(-c2nnc(C)o2)[nH]c1=S` (stereo not drawn) [Compound 14] showed a melting point of 165 to 166 °C.
`CCC(c1ccc(F)c(F)c1)n1c(S)nc(-c2cc(C)on2)c1C(=O)OCCOC` (stereo not drawn) [Compound 16]: the IC50 on CCR2 [2] was 31.6 nM.
In turn, `CCC(c1ccc(Cl)c(Cl)c1)n1c(C(=O)O)c(-c2cccs2)[nH]c1=S` (stereo not drawn) [Compound 23] gave a half-inhibitory concentration (IC50) against CCR2 [1] of 24 nM.
At CCR2 [2], `CCC(c1ccc(Cl)c(Cl)c1)n1c(C(=O)OC)c(-c2snnc2C)[nH]c1=S` (stereo not drawn) [Compound 24] gave an IC50 of 72.4 nM.
Same read-out and setting: with `CCC(c1ccc(Cl)c(Cl)c1)n1c(C(=O)OC)c(-c2ccno2)[nH]c1=S` (stereo not drawn) [Compound 25] the figure was 13.2 nM.
For `CCC(c1ccc(Cl)c(Cl)c1)n1c(C(=O)OC)c(-c2ccno2)[nH]c1=S` (stereo not drawn) [Compound 26], affinity at CCR2B was put at a Ki of 50 nM. The compound further had an IC50 against CCR2 [2] of 7.94 nM.
`CCC(c1ccc(Cl)c(Cl)c1)n1c(C(=O)OC)c(-c2nnc(C)o2)[nH]c1=S` (stereo not drawn) [Compound 27] showed an IC50 on CCR2 [2] of 33.1 nM.
In the case of `CCC(c1ccc(Cl)c(Cl)c1)n1c(C(=O)OC)c(-c2cc(C)on2)[nH]c1=S` (stereo not drawn) [Compound 28], on CCR2B, the Ki was determined as 10 nM. The IC50 against CCR2 [2] is 15.8 nM; against CCR2 [1] it was 367 nM.
`CCC(c1ccc(Cl)c(Cl)c1)n1c(C(=O)OC)c(-c2ccccc2)[nH]c1=S` (stereo not drawn) [Compound 31] showed a Ki on CCR2B of 70 nM. Besides, the results for the IC50 against CCR2 [2] and at CCR2 [1] were 75.9 nM and 214 nM, respectively.
For the compound `CCC(c1ccc(Cl)c(Cl)c1)n1c(C(=O)OC)c(-c2ccccn2)[nH]c1=S` (stereo not drawn) [Compound 32], on CCR2 [2], the IC50 was 25.1 nM.
Same read-out and setting: to `CCC(c1ccc(Cl)c(Cl)c1)n1c(C(=O)OC)c(-c2ccncc2)[nH]c1=S` (stereo not drawn) [Compound 33] belongs 12.6 nM; to `CCC(c1ccc(Cl)c(Cl)c1)n1c(C(=O)OC)c(-c2cnccn2)[nH]c1=S` (stereo not drawn) [Compound 34], 25.1 nM.
`CCC(c1ccc(Cl)c(Cl)c1)n1c(C(N)=O)c(-c2nnc(C)o2)[nH]c1=S` (stereo not drawn) [Compound 36] yielded a Ki on CCR2B of 70 nM. Moreover, the figures for the 50% inhibitory concentration (IC50) against CCR2 [2] and at CCR2 [1] were 39.8 nM and 244 nM, respectively.
For `CCCC(c1ccc(Cl)c(Cl)c1)n1c(C(=O)OC)c(-c2nnc(C)o2)[nH]c1=S` (stereo not drawn) [Compound 40], half-maximal inhibition against CCR2 [2] (IC50) was put at 43.7 nM.
`CC[C@H](c1ccc(F)c(F)c1)n1c(C(=O)OC)c(-c2ccno2)[nH]c1=S` [Compound 43] gave a Ki at CCR2B of 30 nM. At CCR2 [2], this compound had an IC50 of 7.94 nM.
Regarding `CCCC(c1ccc(F)c(F)c1)n1c(C(=O)OC)c(-c2ccno2)[nH]c1=S` (stereo not drawn) [Compound 48], on CCR2 [2], the midpoint of inhibition, the IC50, lay at 12.6 nM.
Consider `CCCC(c1ccc(F)c(F)c1)n1c(C(=O)OC)c(-c2cc(C)on2)[nH]c1=S` (stereo not drawn) [Compound 49], for which the IC50 against CCR2 [2] was 25.1 nM.
Consider `COCC(c1ccc(F)c(F)c1)n1c(C(=O)OC)c(-c2nnc(C)o2)[nH]c1=S` (stereo not drawn) [Compound 50], for which the melting point lay within 102.8 to 102.9 °C.
In the case of `CCC(c1ccc(Cl)c(Cl)c1)n1c(C(=O)OC)c(-c2cccnc2)[nH]c1=S` (stereo not drawn) [Compound 51], the IC50 against CCR2 [2] is 39.8 nM; on CCR2 [1] it was 474 nM.
